# Patent US11246868B2, “Treatment of hippo pathway mutant tumors and methods of identifying subjects as candidates for treatment” (ICAHN SCHOOL OF MEDICINE AT MOUNT SINAI, priority 2016, dated 2022)
# Entries after “also recorded” stand apart in the source; their conditions may differ.
# Tests used:
# [1] = test system: TEAD transcriptional activity; test: TEAD luciferase reporter assay; assay type: cell-based, human; conditions: for TEAD reporter activity: 293T and H2373 cells, 24 hours, comparison of TNKS and PARP1/2 inhibitors
# Description: A set of in-house kinase and commercially available inhibitors was used to screen for effects on the TEAD luciferase reporter. 293 cells expressing the TEAD reporter along with renilla-lucifease (20:1 ratio) were plated at low density (2×10^4 cells) in 24 well plates in triplicate. 24 hours after plating, the cells were treated with 10 μM of each compound or DMSO as control. 24 hours later, dual-luciferase reporter assay was performed according to the manufacturer's protocol (Promega, Madison Wis., USA), using TD-20e Luminometer (Turner Biosystem, Promega, Madison Wis., USA). TEAD reporter activity was normalized to renilla luciferase. The Log 2 values were calculated for each compound using the DMSO sample as control.
# [2] = test system: TEAD target genes (CTGF, CYR61, ANKRD1); test: Quantitative RT-PCR of TEAD target genes; assay type: cell-based, human; conditions: for TEAD target gene expression (CTGF, CYR61, ANKRD1 mRNA): 293T and H2373 cells, 10 μM
# Description: (§1) Total RNA was extracted from cells using the RNeasy Mini kit (Qiagen, Hilden, Germany) following the manufacturer's instructions. 1 μg of total RNA was used for cDNA synthesis using Superscript II (Invitrogen, Carlsbad, Calif., USA) according to the manufacturer's instructions.
# (§2) Quantitative RT-PCR was performed using the ViiA™ 7 Real-Time PCR System (Life Technologies, Carlsbad, Calif., USA) using the FastStart SYBR Green Master mix (Roche, Indianapolis, Ind., USA). Primers were as follows: […]
# (§3) PCR was performed in 384 well plates in 10 μl total volumes under the following conditions: 95° C. for 15 min, followed by 40 cycles of 94° C. for 15 sec, 61° C. for 30 sec, and 72° C. for 30 sec. Specificity was verified by a dissociation curve. Results were analyzed with ViiA7 RUO software (Life Technologies, Carlsbad, Calif., USA). Gene expression levels were normalized to GAPDH expression.
# 293T cells = test: Clonogenic proliferation (colony formation) assay, 293T; assay type: cell-based, human; conditions: 10 to 14 days
# Description: (§6) For clonogenic proliferation assay, cells were plated in triplicate at 1×10^3 cells in 6-well plates. For analysis of the effects of inhibitors on cell proliferation, fresh medium with inhibitor was replaced every 48 hours. After 10 to 14 days of treatment, cultures were fixed and stained with 1% crystal violet (in ethanol) and photographed.
# [3] = test system: angiomotin proteins (AMOT, AMOTL2); test: Western blot of angiomotin protein levels; assay type: cell-based, human; conditions: 10 μM; for angiomotin protein levels (AMOT in 293T, AMOTL2 in H2373): 293T and H2373 cells
# Description: (§4) Cells were harvested in EBC lysis buffer (50 mM Tris-HCl at pH 7.5, 150 mM NaCl, 5 mM EDTA, 0.5% NP-40), supplemented with Complete Mini Protease and Phosphatase Inhibitor Cocktails (Roche, Indianapolis, Ind., USA). Cells were lysed and 30-80 μg protein subjected to SDS-PAGE followed by transfer onto an Immobilon-FL PVDF membrane (Millipore, Billerica, Mass., USA) and incubation with the indicated antibodies. Detection was carried out with an Odyssey Infrared Imaging System (LI-COR Biosciences, Lincoln, Nebr., USA) with IR dye-tagged secondary antibodies (LI-COR Biosciences). The following antibodies were utilized: mouse anti-YAP, goat anti-NF2, mouse anti-AMOT, goat anti-AMOTL1, goat anti-AMOTL2 (Santa Cruz, Dallas, Tex., USA), mouse anti-FlagM2 (Sigma, Saint Louis, Mo., USA), rabbit anti-LATS1, rabbit anti-LATS2, rabbit anti-p-YAP (Cell Signaling, Danvers, Mass., USA), TNKS1/2 (Santa Cruz, Dallas, Tex., USA), mouse anti-TEAD4, mouse anti-RAS (Thermo Scientific, Waltham, Mass., USA), mouse anti-α-Tubulin, mouse anti-β-actin (Sigma, Saint Louis, Mo., USA).
# H2373 cells = test: Clonogenic proliferation (colony formation) assay, H2373; assay type: cell-based, human; conditions: for proliferation / colony formation: H2373 cells (NF2 mutant), 10 to 14 days
# Description: as §6
# [4] = test system: AMOT, AMOTL1, AMOTL2 mRNA; test: qRT-PCR of angiomotin mRNA levels; assay type: cell-based, human; conditions: 293T and H2373 cells, 10 μM, 24 hours
# Description: as §1, §2, §3
# [5] = test system: MCF10A cells stably expressing HRAS-V12; test: Anchorage-independent growth assay, HRAS-V12-transformed MCF10A; assay type: cell-based, human; conditions: MCF10A stably expressing HRAS-V12, 3 weeks
# Description: (§5) Cells were fed every 4 days for 3 weeks by adding 0.2 mL of growth medium containing either 0.1% DMSO as a control or compounds in 0.1% DMSO at the concentrations indicated.
# [6] = test system: Hippo pathway mutant tumor cells and Hippo pathway wild-type cells; test: Cell cycle profile by Propidium Iodide staining; assay type: cell-based, human; conditions: 10 μM, 72 hours
# From the text: Statistical analysis of the cell cycle profile is shown below. Error bars indicate SD of experiments performed in triplicate.
# YAP S127 phosphorylation = test: Western blot of YAP S127 phosphorylation; assay type: cell-based, human; conditions: H2373 cells, varying XAV939 concentrations, 24 hours
# Description: as §4
# AMOT-YAP protein complex = test: Co-immunoprecipitation of endogenous AMOT and YAP; assay type: cell-based, human; conditions: 293T cells, 10 μM, 24 hours
# Description: Cells were harvested in RIPA lysis buffer (50 mM Tris-Cl; pH 8.0, 5 mM EDTA, 1% Triton X-100, 0.1% sodium deoxycholate, 0.1% SDS, 150 mM NaCl) supplemented with Complete Mini Protease and Phosphatase Inhibitor Cocktails. 800 μg proteins were incubated with 10 μg of antibody overnight at 4° C. Anti-mouse or anti-rabbit IgG (Santa Cruz, Dallas, Tex., USA) was used as a negative control. Immunoprecipitated complexes were captured by 2 h incubation at 4° C. with Dynabeads Protein A/G B (Invitrogen, Carlsbad, Calif., USA), followed by three washes in lysis buffer. Immunoprecipitated complexes were eluted by boiling for 5 min with Laemmli buffer (150 mM Tris-Cl; pH 6.8, 20% glycerol, 4% SDS, 0.002% bromophenol blue, 2% 2-mercaptoethanol) with 10% of the total lysates run on the same gel for comparative immunoblot analysis.
# PTEN = test: Western blot of PTEN levels; assay type: cell-based, human; conditions: H2052 and H2373 cells, 10 μM, time course
# Description: as §4
# [7] = test system: YAP overexpressing MCF10A cells; conditions: cited from earlier work
# YAP = test: Immunofluorescence of YAP sub-cellular localization; assay type: cell-based, human; conditions: 24 hours
# Description: Cells cultured on glass coverslips were fixed for 10 min with 4% paraformaldehyde in 1×PBS at 37° C. and permeabilized for 3 min with 0.02% Triton-X100, following exposure for 1 hour to a blocking solution (PBS containing 5% BSA). Coverslips were then incubated at room temperature with the following primary antibodies: anti-YAP (Santa Cruz, Dallas, Tex., USA) and anti-Flag M2 (Sigma, Saint Louis, Mo., USA). Corresponding secondary antibodies were Alexa fluor conjugated (Molecular Probes, Eugene, Oreg., USA). 2 μg/ml DAPI was used as a counter stain and was used to label nuclei. Imaging was performed using an Axioplan 2 Imaging System (Zeiss, Oberkochen, Germany).
# angiomotin = conditions: reported by Wang et al. 2015; cited from earlier work
# [8] = test system: liver tumor growth induced by YAP overexpression or NF2 inactivation; conditions: mice, tumors induced by YAP overexpression or NF2 inactivation; cited from earlier work
# [9] = test system: MCF10A cells stably expressing YAP-WT or YAP-S127A; test: Anchorage-independent growth assay, YAP-transformed MCF10A; assay type: cell-based, human; conditions: 3 weeks
# Description: as §5
molecule,measurement,setting,value
C[C@]1(c2nc3c(C(N)=O)cccc3[nH]2)CCCN1 [ABT-888],TEAD reporter activity,[1],did not affect
same,"TEAD target gene expression (CTGF, CYR61, ANKRD1 mRNA)",[2]; 24 hours,did not affect
same,proliferation / colony formation,293T cells,did not affect
same,"angiomotin protein levels (AMOT in 293T, AMOTL2 in H2373)",[3]; 24 hours,lacked any effect
same,proliferation / colony formation,H2373 cells,did not affect
same,"AMOT, AMOTL1, AMOTL2 mRNA levels",[4],lacked any effect
O=C(Nc1cccc2cccnc12)c1ccc(N2C(=O)[C@@H]3[C@H](C2=O)[C@@H]2C=C[C@H]3C2)cc1 [IWR1],TEAD reporter activity,[1],able to inhibit
same,"TEAD target gene expression (CTGF, CYR61, ANKRD1 mRNA)",[2]; 24 hours,able to inhibit
same,"angiomotin protein levels (AMOT in 293T, AMOTL2 in H2373)",[3]; 24 hours,strikingly increased
same,proliferation / colony formation,H2373 cells,significantly decreased
same,"AMOT, AMOTL1, AMOTL2 mRNA levels",[4],did not markedly affect
CC(C)c1ccc(-c2cc(=O)c3ccccc3o2)cc1 [MN-64],TEAD reporter activity,[1],able to inhibit
same,"TEAD target gene expression (CTGF, CYR61, ANKRD1 mRNA)",[2]; 24 hours,able to inhibit
same,"angiomotin protein levels (AMOT in 293T, AMOTL2 in H2373)",[3]; 24 hours,strikingly increased
same,proliferation / colony formation,H2373 cells,significantly decreased
same,"AMOT, AMOTL1, AMOTL2 mRNA levels",[4],did not markedly affect
Oc1nc(-c2ccc(C(F)(F)F)cc2)nc2c1CSCC2 [XAV939],HRAS-V12-induced agar colony formation,[5],lacked any effect; also recorded: not inhibited
same,inhibitory effect on TEAD transcriptional activity under AMOTL2 silencing,"[1]; H2373 cells, doxycycline-inducible AMOTL2 shRNA, 10 μM XAV939",almost completely rescued
same,"expression of TEAD target genes (CTGF, CYR61, ANKRD1 mRNA)","[2]; H2052 cells, 24 hours",only modestly affected
same,expression of TEAD target genes,[2]; MCF10A cells stably overexpressing YAP-S127A,inhibited
same,"expression of TEAD target genes (CTGF, CYR61, ANKRD1 mRNA)","[2]; all cell lines tested with the exception of H2052, 24 hours",markedly decreased
same,cell cycle profile,[6]; cell lines which were not growth inhibited,no detectable cell cycle alteration
same,cell cycle profile,[6]; tumor lines whose proliferation was inhibited,increased G1 and reduced S phase fractions
same,YAP S127 phosphorylation status,YAP S127 phosphorylation,did not show any significant differences
same,"angiomotin protein levels (AMOT in 293T, AMOTL2 in H2373)",[3]; 24 hours,strikingly increased
same,AMOTL2 protein levels,"[3]; H2052 cells, 24 hrs",increased
same,"AMOTL2 protein levels, time course","[3]; H2373 as compared to resistant H2052 cells, 12 days","stabilized higher, durable levels"
same,AMOTL2 levels,"[3]; Hippo mutant MESO25 and 211H cells, 24 hours",Increased
same,durable stabilization of AMOTL2,[3]; resistant H2052 cells,failed to durably stabilize
same,AMOT-YAP protein complex,AMOT-YAP protein complex,enrichment
same,inhibitory effect on colony formation under AMOTL2 silencing,"H2373 cells; H2373 cells, doxycycline-inducible AMOTL2 shRNA, 10 μM XAV939, 14 days",almost completely rescued
same,levels of PTEN,PTEN,increased modestly
same,acini formation in matrigel,[7],inhibited
same,YAP sub-cellular localization,"YAP; H2373 cells, endogenous YAP",induced YAP re-localization to the cytoplasm
same,YAP-S127A sub-cellular localization,YAP; MCF10A stably expressing YAP-S127A,significant shift of YAPS127A to the cytoplasm
same,angiomotin stabilization,angiomotin,stabilized
same,"AMOT, AMOTL1, AMOTL2 mRNA levels",[4],did not markedly affect
verteporfin,HRAS-V12-induced agar colony formation,[5],completely blocked
same,liver tumor growth,[8],suppressed
same,YAP-WT- and YAP-S127A-induced anchorage-independent cell growth (soft agar colonies),[9],completely blocked
